From patent US8273771B2, “Ischemic disorder or disease inhibitors” (Pronas Pharma AB, priority 2007, dated 2012)
Read-outs that look alike come from different tables or passages of the source.

Assays:
rats with induced SAH = assay: Neurological scoring in rat subarachnoid hemorrhage model; assay type: in vivo; details: established scoring system, SAH+vehicle score 1, sham score 0
Excerpt: Subarachnoid hemorrhage was induced by a model originally devised by Svendgaard et al and carefully described by Prunell et al (2003). Male Sprague-Dawley rats (350-400 g) were anaesthetized using 5% halothane (Halocarbon Laboratories, River Edge, N.J.) in N2O/O2 (30:70). The rat was intubated and artificially ventilated with inhalation of 0.5-1.5% halothane in N2O/O2 (70:30) during the surgical procedure. The depth of anaesthesia was carefully monitored and the respiration checked by regularly withdrawing arterial blood samples for blood gas analysis (Radiometer, Copenhagen, Denmark). An electric temperature probe was inserted into the rectum of the rat to record the temperature, which was maintained at 37° C. An arterial catheter to measure blood pressure was placed in the tail artery and a catheter to monitor intracranial pressure (ICP) was placed in the subarachnoid space under the subocciptal membrane. At either side of the skull, 3 mm from the midline and 4 mm anteriorly from the bregma, holes were drilled through the skull bone down to dura mater (without perforation) allowing the placement of two laser-Doppler flow probes to measure cortical CBF. […]
During the period, the rat was monitored regularly, and if showing severe distress the animal was prematurely killed. […]

pERK1/2 = assay: Immunohistochemistry of cerebral arteries after SAH; assay type: in vivo, rat; details: smooth muscle cells; sham 100±3%, SAH 188±7%
AT2 receptor mRNA = assay: Real-time PCR of receptor mRNA in cerebral arteries after SAH; assay type: in vivo, rat; details: MCA, BA and circle of Willis grouped
AT1 receptor mRNA = assay: as above; assay type: in vivo, rat; details: MCA, BA and circle of Willis grouped; SAH rats
[1] = test system: rats after MCA occlusion and reperfusion; details: for brain damage (% of total volume): control 24.8±2%; for oedema (% of total volume): control 1.01±0.03
Protocol: This group of animals went through the same procedure as the above-mentioned SAH animals. Two hours after the MCA occlusion, the rat was re-anesthetized to allow for withdrawal of the filament and subsequent reperfusion of the brain. In conjunction with the reperfusion (0 h), at 6 h or at 12 h afterwards, and at 24 h after the start of the reperfusion in the same animal, the rats were injected intraperitoneal with 30 mg/kg U0126 dissolved in dimethylsulfoxide (DMSO). […] Control rats were injected with an equal volume of DMSO at the same time points.

SMILES | neurological score (rats with induced SAH) | pERK1/2 level, fluorescence compared to sham (pERK1/2) [%] | expression of AT2 receptor mRNA, difference between sham, SAH and treated SAH (AT2 receptor mRNA) | enhanced expression of AT1 receptor mRNA (AT1 receptor mRNA) | brain damage (% of total volume) ([1]; 30 mg/kg i.p. starting after 12 h) [%] | brain damage (% of total volume) ([1]; 30 mg/kg i.p. starting at 0 h after MCAO reperfusion) [%] | brain damage (% of total volume) ([1]; 30 mg/kg i.p. starting at 6 h) [%] | lowest dose that elicited a clear significant effect on infarct volume ([1]; intraperitoneal, doses 10 to 100 mg/kg evaluated, preliminary experiments) [mg/kg] | oedema (% of total volume) ([1]; treatment starting at 0 h) | oedema (% of total volume) ([1]; treatment starting at 6 h) | oedema (% of total volume) ([1]; treatment starting at 12 h)
Cn1cc(C2=C(c3cn(CCCN)c4ccccc34)C(=O)NC2=O)c2ccccc21 [RO-31-7549] | 0 |  |  |  |  |  |  |  |  |  | 
Oc1cc(-c2nc(-c3ccccc3)[nH]c2-c2ccncc2)ccc1Cl [SB386023-b] | 0 | 102±5 | no difference | inhibited |  |  |  |  |  |  | 
N#CC(=C(/N)Sc1ccccc1N)/C(C#N)=C(\N)Sc1ccccc1N [U0126] |  |  |  |  | 20.3±1 | 11.8±2 | 14.6±3 | 30 | 1.05±0.02 % of total volume | 0.98±0.02 % of total volume | 1.02±0.04 % of total volume
